Results on two molecules are retold here after PMC10743653, “Combined In Silico and In Vitro Analyses to Assess the Anticancer Potential of Thiazolidinedione–Thiosemicarbazone Hybrid Molecules” (International Journal of Molecular Sciences, 2023).

Data set [1] has as its system HepG2 cells. Description: Cell migration (wound healing) assay, HepG2. It is filed as cell-based, human. Particulars: HepG2, IC50 doses (2: 10.39 μM; 3: 2.97 μM), 24 h. The method, then: (§1) The possible anti-migratory effect of 2 and 3 was examined against HepG2 and T98G cells, which most effectively responded to TZD–TSC treatment. The ability of cells to cover the scratched area was monitored after 24 h of incubation with compounds 2 and 3. […] Thus, we can conclude that the anticancer potential of the investigated compounds is enriched by their anti-metastatic effect.
Cell migration ability was evaluated according to a wound healing assay. On the day of the experiment, HepG2 and T98G cells were collected from monolayers using trypsin/EDTA and seeded on 6-well plates at a density of 1 × 10^5 cells mL^−1. After 24 h, when the confluence of cells reached about 80%, a vertical linear scratch was created in the monolayer with a sterile pipette tip. The cells were washed three times with a phosphate-buffered saline (PBS) to remove all cellular debris. […] The open wound area was measured with the NIH ImageJ software version 1.53t (Bethesda, Rockville, MD, USA). The percentage of wound closure was calculated using the following formula [81]: Wound closure (%)=open wound area at 0 h −open wound area at 24 h or 48 h/open wound area at 0 h×100%

Data set [2] has as its system T98G cells. Put plainly: Cell migration (wound healing) assay, T98G. Particulars: 24 h; for Migration of cancer cells (wound healing): IC50 doses (2: 26.82 μM; 3: 28.34 μM); for Reduction in the migratory potential: ½ IC50 concentrations (2: 13.41 μM; 3: 14.17 μM). Format: cell-based, human. The method, then: as §1
Cell migration ability was evaluated according to a wound healing assay. On the day of the experiment, HepG2 and T98G cells were collected from monolayers using trypsin/EDTA and seeded on 6-well plates at a density of 1 × 10^5 cells mL^−1. After 24 h, when the confluence of cells reached about 80%, a vertical linear scratch was created in the monolayer with a sterile pipette tip. The cells were washed three times with a phosphate-buffered saline (PBS) to remove all cellular debris. Subsequently, the cells were cultured in a serum-free medium, containing compounds 2 or 3 in the concentrations equal to their IC50 or ½ IC50 values, as examined for HepG2 and T98G cancer cell lines (data provided in Table 2).Images of the scratch were taken after 0 h and 24 h using an Olympus CKX53 microscope coupled with a XM10 digital camera (Olympus). The experiments were performed at least in duplicate. The scratch area at the beginning of the experiment (0 h) was considered to be 100%. The open wound area was measured with the NIH ImageJ software version 1.53t (Bethesda, Rockville, MD, USA). The percentage of wound closure was calculated using the following formula [81]: Wound closure (%)=open wound area at 0 h −open wound area at 24 h or 48 h/open wound area at 0 h×100%

Data set [3] relates to human red blood cells (RBCs). Put plainly: In vitro hemolysis assay. Format: cell-based. Particulars: 30 min, 37 °C, at IC50 values for HepG2. The protocol:
The hematologic toxicity of the most cytotoxic TZD–TSCs, compounds 2 and 3, was tested via in vitro hemolysis assay, following a 30 min treatment of human RBCs at 37 °C with these compounds.
Human red blood cell (RBC) concentrate was obtained from the Regional Blood Donation and Transfusion Centre (Lublin, Poland). The RBC concentrate (5 mL) was washed three times with sterile PBS and centrifuged at 500 g for 3 minutes. The obtained pellet was suspended in sterile PBS to obtain a 2% suspension, which was subsequently mixed with 1 mL of solution of TZD–TSCs 2 and 3. […] The mixtures were incubated at 37 °C for 30 min and, subsequently, centrifuged at 1400× g for 10 min. The amount of free hemoglobin in the supernatants was measured spectrophotometrically at 405 nm. Negative and positive controls were performed by incubating RBCs with sterile PBS and 0.1% Triton-X, respectively. Each experiment was run in triplicate.

Data set [4] relates to CCD 841 CoTr cells. Put plainly: Nitric oxide measurement (Griess), CCD 841 CoTr. Format: cell-based, human. Particulars: 200 μg/mL. The protocol: (§2) Nitrate, i.e., a stable end product of NO, was measured in culture supernatants with a spectrophotometric method based on the Griess reaction. Culture supernatants were collected from the cell cultures treated with specific concentrations of the tested compounds (25, 75, 150, and 200 μg/mL, respectively). Briefly, 100 μL of the culture supernatant was placed in 96-well flat-bottomed plates in triplicate and incubated with 100 μL of Griess reagent (1% sulfanilamide/0.1% N-(1-naphthyl)ethylenediamine dihydrochloride) in 3% H3PO4 at room temperature for 10 min. The optical density was measured at 550 nm using a microplate reader. A standard curve was prepared using 0.5–25 μM sodium nitrite (NaNO2) for calibration.
In general terms: Nitrite, measured by Griess reagent, commonly stands in for NO production.

For data set [5], the system named is HT29 cells. Description: Nitric oxide measurement (Griess), HT29. Format: cell-based, human. The following applies: HT29, 200 μg/mL. The method, then:
as §2

A short description of data set [6]: DPPH free radical scavenging test. The text has this: (§3) Antioxidant activity is a complex procedure, usually happening through several multiple or predominant chemical mechanisms (i.e., hydrogen atom transfer (HAT), single electron transfer (SET), and the ability to chelate transition metals), and it is influenced by many factors, which cannot be fully described with one single method. Therefore, it is important to perform more than one type of measurement to take into account the various mechanisms of antioxidant action. In this study, to assess the antioxidant activity of TZD–TSCs 2–5, two complementary tests were used: a DPPH (2,2-diphenyl-1-picrylhydrazyl) free radical-scavenging ability assay, that detects the HAT and SET mechanisms, and a FRAP (ferric reducing antioxidant power) assay, that prefers the […] mechanism. The antioxidant powers of 2–5 were compared to standard antioxidants, such as the water-soluble synthetic analogue of vitamin E (Trolox) and ascorbic acid (vitamin C).
The free radical scavenging activity of […] was measured by the DPPH assay. Briefly, 100 μl of DPPH solution (0.2 mg/mL in ethanol) was added to 100 μL of the tested compound concentrations (25, 75, 150, and 200 μg/mL, respectively). Trolox, at increasing concentrations (1–50 μg/mL), was used as a standard. After 20 min of incubation at room temperature, the absorbances of the solutions were measured at 515 nm. The lower the absorbance, the higher the free radical scavenging activity of the compound. The activity of each compound was determined by comparing its absorbance with that of the standard.
The ability of the compounds to scavenge the DPPH radical was calculated by the following formula:DPPH scavenging effect (%) = [(Xcontrol − Xcompound/Xcontrol) × 100], where Xcontrol is the absorbance of the control and Xcompound is the absorbance in the presence of TZD-TSCs preparations.

A short description of data set [7]: Ferric-reducing antioxidant power (FRAP) assay.
Source text: as §3
Each compound concentration (25, 75, 150, and 200 μg/mL, respectively) was dissolved in Milli-Q water and mixed with an equal volume of 0.2 M sodium phosphate buffer (pH 6.6) and 1% potassium ferricyanide. The mixture was incubated for 30 min at 37 °C. Thereafter, 10% trichloroacetic acid (w/v) was added and the mixture was centrifuged at 1000 g for 5 min. One mL of the upper layer was mixed with an equal volume of Milli-Q water and 0.1% ferric chloride. The absorbance was read at 700 nm using an EL800 Universal Microplate Reader (BioTek Instruments, Winooski, VT, USA). Ascorbic acid (0–150 μg/mL) was used as a positive control.

Data set [8] concerns bacteria. Details: method as in PMID 29701728. Particulars: in vitro antibacterial potency; cited from earlier work.

With `O=C(C=C1SC(=O)NC1=O)Oc1ccccc1C=NNC(=S)Nc1ccccc1Cl` [TZD–TSC 2], the “Migration of cancer cells (wound healing)” value in data set [1] and in data set [2] was “almost completely suppressed” in each case. The “Reduction in the migratory potential” value in data set [2] is on record as above 90%. Moreover, the “Hemolytic activity (free hemoglobin released)” value in data set [3] is listed as “no specific hemolytic activity”. Also, the “NO production, [NO2^−]” value in data set [4] is 0.566 µM; in data set [5] it was 0.272 µM. Further, the “DPPH reduction value corresponding to concentration of Trolox” value came out at 2.942 µg/mL in data set [6] (compound at 25 μg/mL), 6.670 µg/mL in data set [6] (compound at 75 μg/mL), 11.412 µg/mL in data set [6] (compound at 150 μg/mL) and 15.068 µg/mL in data set [6] (compound at 200 μg/mL). In addition, the “FRAP reduction value corresponding to concentration of ascorbic acid” value amounted to 2.43 µg/mL in data set [7] (compound at 25 μg/mL), 4.32 µg/mL in data set [7] (compound at 75 μg/mL), 3.51 µg/mL in data set [7] (compound at 150 μg/mL) and 7.84 µg/mL in data set [7] (compound at 200 μg/mL). For the same molecule, the “Minimal inhibitory concentrations (MICs)” value in data set [8] was 8.48 to 16.94 µM.

Take `O=C(C=C1SC(=O)NC1=O)Oc1ccccc1C=NNC(=S)Nc1cccc(Cl)c1` [TZD–TSC 3]: the “Migration of cancer cells (wound healing)” value in data set [1] and in data set [2] was “almost completely suppressed” in each case. Also, the “Reduction in the migratory potential” value in data set [2] was above 90%. Further, the “Hemolytic activity (free hemoglobin released)” value in data set [3] is recorded as “no specific hemolytic activity”. Also, the “NO production, [NO2^−]” value in data set [4] is 0.492 µM; in data set [5], 0.201 µM. Also, the “DPPH reduction value corresponding to concentration of Trolox” value in data set [6] (compound at 25 μg/mL) was found to be 2.616 µg/mL; in data set [6] (compound at 75 μg/mL), 9.168 µg/mL; in data set [6] (compound at 150 μg/mL) it was 17.167 µg/mL; in data set [6] (compound at 200 μg/mL), 21.439 µg/mL. Further, the “FRAP reduction value corresponding to concentration of ascorbic acid” value came out at 0.81 µg/mL in data set [7] (compound at 25 μg/mL), 0.27 µg/mL in data set [7] (compound at 75 μg/mL), 1.08 µg/mL in data set [7] (compound at 150 μg/mL) and 1.89 µg/mL in data set [7] (compound at 200 μg/mL). Further, the “Minimal inhibitory concentrations (MICs)” value in data set [8] is 8.48 to 16.94 µM.
